Legend:
Drosophila [1] = experiment: Life span of Drosophila fed PBA early or late in life; assay type: in vivo, Drosophila melanogaster
Drosophila [2] = experiment: Survival on dry starvation; assay type: in vivo, Drosophila melanogaster; details: empty vials, FIG. 3B
Description: (§1) Stress to an animal can be achieved by starvation or an increase production of free radicals. The effective removal of free radicals or the increase of antioxidant levels reduce stress to the animal and are important in slowing down the ageing process. The failure to repair oxidative damages and the elevation of free radial is known to shorten the life span of animal. Therefore, resistance to stress was measured in PBA fed flies by measuring if they have an increase resistance to the free radical generator, paraquat, and to dry starvation. PBA treated and control flies drank sucrose solution containing 20 mM paraquat were tested for duration of life span (e.g. survival) (FIG. 3C). […] PBA treated and control flies were also put into empty vials to measure their survival on dry starvation (FIG. 3B).

Drosophila [3] = experiment: Life span of Drosophila fed various concentrations of PBA; assay type: in vivo, Drosophila melanogaster
Drosophila [4] = experiment: Food intake (food dye in alimentary tract), caloric restriction test; assay type: in vivo, Drosophila melanogaster; details: overnight feeding, ten flies per group
Description: (§2) Caloric restriction increases life span in rodents, worms, and yeast (Guarente, L & Kenyon, C. Nature 408, 255-262 (2000)). Although PBA is odorless and tasteless to human, flies may dislike the smell or taste of the drug, which may cause caloric restriction. To test the issue of possible caloric restriction effects, the intake of food was measured by adding food dye to both the control and PBA containing media. After an overnight feeding, the alimentary tracts of ten flies from each group were dissected out and examined for color. No difference in the alimentary tract of these flies was discernible. Further, the weight and size of the flies were measured after ten days of feeding with or without PBA (Table 1). […] Therefore, the extension of life span observed in Drosophila fed PBA is most likely not due to caloric restriction.

Drosophila [5] = experiment: Reproductive activity of Drosophila fed PBA (eggs, adult progeny, progeny weight and size); assay type: in vivo, Drosophila melanogaster
Description: (§3) Table 1 is a comparison of weight, size and reproductive ability of Drosophila raised on food with and without 10 mM PBA for 10 days at 25° C., as described in Example 1, infra.
Reproductive signaling in C. elegans and Drosophila also contribute to extend life span (Guarente, L & Kenyon, C. Nature 408, 255-262 (2000)). PBA treatment may slow down reproduction of flies and thus results in the extension of life span. The role of PBA on the reproductive activity of female Drosophila was examined by counting the number of eggs layed, the percentage of eggs yielding adult progeny, and the weight and size of the progeny.

histones H3 and H4 = experiment: Histone acetylation level by western blot in flies fed PBA; assay type: in vivo, Drosophila melanogaster; details: flies fed PBA versus untreated, FIG. 4A and 4B
Text: PBA, an inhibitor of histone deacetylase, is known to enhance acetylation in the tails of histones H3 and H4, which causes the tails to be released from the DNA (Lea et al. Induction of Histone Acetylation and Growth Regulation in Erythroleukemia Cells by 4-phenylbutyrate and Structural Analogs Anticancer Research 19:1971-1976 (1999)). The acetylation of histones changes the binding affinity between histones and DNA, and leads genes to recruit transcription factors and undergo transcription. Using western blots stained with specific antibodies, the level of histone acetylation was measured in Drosophila, with and without PBA treatment. Batches of 100 flies (males+females) were used to prepare histones (Alfageme, C. R., Zweidler, A., Mahowald, A. & Cohen, L. H. Histones of Drosophila embryos J. Biol. Chem. 12, 3729-3736 (1974)). The homogenates of whole flies were centrifuged at 2,500×g for 10 min in a medium containing 0.05 M glycine, 10 mM Tris potassium maleate, 5 mM MgCl2, 10 mM mercaptoethanol, pH 7.3. Isolated nuclei were used to extract histones by HCl treatment. 10 μg samples of histone protein were loaded on a 16.5% polyacrylamide gel for electrophoresis, then transferred to a PVDF membrane (Immobilin-P transfer membrane, Millipore, Bedford, Mass.), followed by hybridization with antibodies to acetylated and nonacetylated H3 and H4 (Upstate Biotechnology, Lake Placid, N.Y.).

Drosophila [6] = experiment: Weight and size of flies fed PBA; assay type: in vivo, Drosophila melanogaster
Description: as §3, §2

transcription levels = experiment: Verification of changes in transcription levels (RT-PCR / Northern); details: 10 mM PBA, 10 days, 29° C.
Description: In another embodiment of the invention RT-PCR was be used to verify the changes in transcription levels seen by the difference in hybridization on the membrane arrays. Newly emerged adult flies (males+females) were fed food containing 10 mM PBA, or plain food for 10 days at 29° C., then total RNA was extracted and used to synthesize cDNA. For each PCR reaction, 50 ng of cDNA was used. Primers were designed from the sequence of each gene to detect fragments of between 300 and 600 base pairs (Table 4). PCR reactions were performed with 30 cycles of 94° C. for 1 minute, 55° C. for 1 minute, and 72° C. for 1 minute.
Biochem. Biophys. 301, 34-40 (1993)). Elongation factor1-alpha plays a critical role in maintaining the level of protein synthesis, which normally declines with age (Webster, G. C. & Webster, S. L. Specific disappearance of translatable messenger RNA for elongation factor one in aging Drosophila melanogaster. Mech. Ageing Devel. 24, 335-342). […] Heat shock proteins enhance resistance to stress and extend life span (Tatar, M., Khazaeli, A. A. & Curtsinger, J. W. Chaperoning extended life. Nature 390, 30 (1997); Lithgow, G. J. Temperature, stress response and aging. Rev. Clin. Gerontol. 6, 119-127 (1996)).

Drosophila [7] = experiment: Resistance to paraquat induced stress (survival); assay type: in vivo, Drosophila melanogaster; details: sucrose solution containing 20 mM paraquat, FIG. 3C
Description: as §1

histone deacetylase = details: Lea & Randolph 1998; cited from earlier work
Drosophila EST clones = experiment: Differential gene expression on high density membrane arrays; assay type: in vivo, Drosophila melanogaster; details: 10 mM PBA, 10 days, 29° C.
Description: To investigate the differential pattern of gene activity resulting from PBA treatment, high density membrane arrays containing about 27,000 Drosophila EST clones (Research Genetics, Huntsville, Tenn.) were used. Messenger RNA was prepared from either 10 day old flies that had been treated with 10 mM PBA at 29° C. from emergence onward. A similar preparation was made from untreated flies. These RNA preparations were used as probes on the membrane arrays.
The Smart PCR cDNA synthesis kit (Clontech, Palo Alto, Calif.) was used to synthesize probes for hybridization. Total RNA was prepared from flies (males+females) fed for 10 days at 29° C. with medium containing 10 mM PBA or plain medium. After first strand synthesis of cDNAs by MMLV reverse transcriptase (M-MLV reverse transcriptase, Boehringer Mannheim, Indianapolis, Ind.), the cDNA was amplified by polymerase chain reaction (PCR). The reaction consisted of 95° C. for 1 minute, then 24 cycles of 95° C. for 15 seconds, 65° C. for 30 seconds, and 68° C. for 6 minutes. Probes were prepared by a random primed DNA labeling method with p^32. Filters containing 27,000 Drosophila EST clones (Research Genetics, Huntsville, Tenn.) were prehybridized for 4 hours, then probes were added to hybridize for 16 hours at 58° C. in a buffer containing 1 M NaCl, 0.05M Tris (pH 8.0), 5 mM EDTA, 1% SDS, and 10% Dextran Sulfate. […]

Drosophila [8] = experiment: Locomotor activity, negative geotaxis in counter current distribution apparatus; assay type: in vivo, Drosophila melanogaster; details: old flies, FIG. 3A
Description: Life extension without maintaining physical or mental vigor is undesirable. To examine whether the life span increase by PBA is associated with extended maintenance of vigor, the locomotor activity was measured for young and old flies raised with and without PBA treatment. A known assay of negative geotaxis in a counter current distribution apparatus was measured the locomotor activity of the flies (Benzer, S. Proc. Natl. Acad. Sci. U.S.A. 58, 1112-1119 (1967); FIG. 3A).

[9] = w^118 flies, medium containing 10 mM PBA, 29° C. (FIG. 1A)
[10] = progeny of flies raised on 10 mM PBA, n = 10
[11] = progeny of flies raised on 10 mM PBA, n = 40
[12] = 10 mM PBA, 10 days, 25° C., n = 10
[13] = 10 mM PBA, 10 days, 25° C., n = 40

With `O=C([O-])CCCc1ccccc1.[Na+]` [PBA, 4-phenylbutyric acid, sodium salt] the “life span compared with untreated flies” value (Drosophila [1]; PBA from emergence to 12 days, then plain medium) was “increased life span compared with untreated flies”, the “life span compared with untreated flies” value (Drosophila [1]; plain medium for first 12 days, then PBA for remainder of life) was “increased life span compared with untreated flies” and the “treatment initiated at later age versus young age” value (Drosophila [1]; virgin female flies (not in males), FIG. 2A) was “even more effective than the same duration of treatment at young age”. For the same compound, the “resistance to dry starvation” value (Drosophila [2]) was “enhanced the resistance to starvation”, the “life span compared to same strain fed on fly medium” value (Drosophila [3]; Canton-S strain, 10 mM PBA (FIG. 1C)) was “extended life span” and the effect on longevity (Drosophila [3]; w^118 flies, lower concentrations of PBA (0.1, 1, 2.5, 5 mM)) was “no effect on longevity”. The “extension in maximum life span” value (Drosophila [3]; [9]) was 60%, the “extension in median life span” value (Drosophila [3]; [9]) was “about 35%” and the “intake of food (colour of alimentary tract)” value (Drosophila [4]) was “No difference”. The egg laying (Drosophila [5]; 3 males + 3 females a vial for 16 hrs, n = 20 vials, 10 mM PBA, 10 days, 25° C.) was 70 ± 16, the “effect on reproductive activity of female flies” value (Drosophila [5]; all measurements of Table 1) was “no detrimental effect” and the “% of eggs yielding adults” value (Drosophila [5]; n = 20 vials, 10 mM PBA, 10 days, 25° C.) was 70 ± 16%. The “weight of 5 flies, progeny females” value (Drosophila [5]; [10]) was 5.2 ± 0.2 mg, the “weight of 5 flies, progeny males” value (Drosophila [5]; [10]) was 3.5 ± 0.3 mg and the “size of fly, progeny female” value (Drosophila [5]; [11]) was 5.5 ± 0.1 mm. For the same compound, the “size of fly, progeny male” value (Drosophila [5]; [11]) was 4.6 ± 0.2 mm, the “acetylation of histones H3 and H4” value (histones H3 and H4) was “increase of acetylated H3 and H4” and the “weight of 5 flies, parent females” value (Drosophila [6]; [12]) was 5.1 ± 0.2 mg. For the same compound, the “weight of 5 flies, parent males” value (Drosophila [6]; [12]) was 3.3 ± 0.4 mg, the “size of fly, parent female” value (Drosophila [6]; [13]) was 5.5 ± 0.1 mm and the “size of fly, parent male” value (Drosophila [6]; [13]) was 4.6 ± 0.1 mm. For the same compound, the “weight and size of the flies versus control” value (Drosophila [6]; after ten days of feeding with or without PBA) was “no differences were observed”, the “Fold-change, cytochrome P450-4d1 (CG3656)” value (transcription levels; induced) was 7.2 fold and the “Fold-change, daughterless (CG5102)” value (transcription levels; induced) was 8.0 fold. The “Fold-change, dnaJ like2 (CG3061)” value (transcription levels; induced) was 2.9 fold, the “Fold-change, epididymal secretory protein (CG7291)” value (transcription levels; induced) was 7.5 fold and the “Fold-change, glutathione S transferase (CG10045)” value (transcription levels; induced) was 4.6 fold. For the same compound, the “Fold-change, hsc70 (CG4264)” value (transcription levels; induced) was 4.5 fold, the “Fold-change, hsp60 (CG12101)” value (transcription levels; induced) was 6.7 fold and the “Fold-change, imaginal disc growth factor1 (CG4472)” value (transcription levels; induced) was 5.3 fold. The “Fold-change, inebriated (CG15444)” value (transcription levels; induced) was 26.8 fold, the “Fold-change, mitochondrial phosphate carrier protein (CG4994)” value (transcription levels; induced) was 5.1 fold and the “Fold-change, superoxide dismutase (CG8905)” value (transcription levels; induced) was 51.9 fold. The “Fold-change, translational elongation factor1 α (CG8280)” value (transcription levels; induced) was 4.1 fold, the “Fold-change, transportin (CG7398)” value (transcription levels; induced) was 8.0 fold and the “Fold-Change, NADH:ubiquinone reductase 75kD subunit precursor (CG2286)” value (transcription levels; repressed) was 25.3 fold. For the same compound, the “Fold-Change, calreticulin (GH25160)” value (transcription levels; repressed) was 26.5 fold, the “Fold-Change, cyclin-dependent kinase9 (GH21935)” value (transcription levels; repressed) was 2.7 fold and the “Fold-Change, cytochrome c oxidase (FBgn0013674)” value (transcription levels; repressed) was 6.6 fold. The “Fold-Change, cytochrome c oxidase subunit Vlb (CG14235)” value (transcription levels; repressed) was 2.2 fold, the “Fold-Change, dnaJ like1 (CG10578)” value (transcription levels; repressed) was 13.2 fold and the “Fold-Change, fatty acid synthetase (CG3523)” value (transcription levels; repressed) was 2.4 fold. The “Fold-Change, glyceraldehyde 3 phosphate dehydrogenase1 (CG12055)” value (transcription levels; repressed) was 3.7 fold, the “Fold-Change, hexokinase (CG3001)” value (transcription levels; repressed) was 5.0 fold and the “Fold-Change, osa (GH03026)” value (transcription levels; repressed) was 5.0 fold. For the same compound, the “Fold-Change, peptidyl glycine α hydroxylating monooxygenase (CG3832)” value (transcription levels; repressed) was 1.4 fold, the “Fold-Change, peroxisomal farnesylated protein (GH03076)” value (transcription levels; repressed) was 1.8 fold and the “Fold-Change, porin (GH08586)” value (transcription levels; repressed) was 1.4 fold. The “survival under paraquat induced stress” value (Drosophila [7]) was “survived much longer”, the “activity on histone deacetylase” value (histone deacetylase) was “inhibits the activity of histone deacetylase” and the “number of genes strongly induced” value (Drosophila EST clones) was “One hundred”. For the same compound, the “number of genes suppressed” value (Drosophila EST clones; disappearance of a visible spot) was 48 and the “climbing ability (locomotor activity)” value (Drosophila [8]) was “enhanced the climbing ability of old flies significantly”.

Source: patent US20020120008A1, “Life extension of drosophila by a drug treatment” (priority 2000, published 2002)
